Source: PubChem BioAssay (NCI)
“And” between values parts separate entries of the source, which are not always exact repeats. Equal entries are not always repeated.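 These data come from cells grown in 96-well plates and exposed to compound for 48 hours at five concentrations. GI50: concentration for 50% inhibition of growth. The concentration for full growth arrest is given as TGI.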

How the values were obtained:
Assay in all cases: NCI tumour cell line growth inhibition, 48 h
[1] = system: BT-549 breast
[2] = system: DLD-1 colon
[3] = system: DMS 114 small cell lung
[4] = system: DMS 273 small cell lung
[5] = system: KM20L2 colon
[6] = system: MCF7 breast
[7] = system: MDA-N
[8] = system: RXF-631 renal
[9] = system: T-47D breast
[10] = system: P388 leukemia
[11] = system: P388/ADR leukemia

Row | SMILES | TGI [1] [µM] | TGI [2] [µM] | TGI [3] [µM] | TGI [4] [µM] | TGI [5] [µM] | TGI [6] [µM] | TGI [7] [µM] | TGI [8] | TGI [9] [µM] | GI50 [2] [µM] | GI50 [3] | GI50 [4] | TGI [10] [µM] | TGI [11] [µM] | GI50 [5] [µM] | GI50 [8] | GI50 [6] [µM] | GI50 [9] [µM]
1 | O=C1/C(=C/c2ccccc2)CN(C(=O)/C=C/c2ccccc2)C/C1=C\c1ccccc1 | 4.7 | 11.3 | > 43.8 | > 100 | > 46.2 | 3.83 | 3.43 | > 100 µM | 15.1 | – | – | – | – | – | – | – | – | –
2 | CC1Nc2ccccc2NC1C=C(C#N)C#N (stereo not given) | – | 30.2 | 40.7 | 25.1 | 31 | – | – | 24.4 µM | – | – | – | – | – | – | – | – | – | –
3 | COc1ccc(C2=NC(CO)[C@H](c3ccccc3)O2)cc1OC (stereo not given in full) | – | > 100 | > 100 | > 100 | > 100 | – | – | > 100 µM | – | – | – | – | – | – | – | – | – | –
4 | CCOC(=O)c1ccc(N[C@@H]2c3cc4c(cc3C(c3cc(OC)c(O)c(OC)c3)[C@H]3C(=O)OCC32)OCO4)cc1 (stereo not given in full) | 4.58 | 8.02 | 3.65 | 3.85 | 10.7 | 20.3 | – | – | – | 0.877 | 0.326 µM | 0.134 µM and 0.156 µM | 0.0208 | 0.0959 | – | – | – | –
5 | CC[C@@]1(O)C(=O)OCc2c1cc1n(c2=O)Cc2cc3c(N)c(OC)ccc3nc2-1 | – | > 100 | 0.189 | 0.36 | 1.8 | – | – | 2.74 µM | – | 1 | 0.0252 µM | < 0.0166 µM | – | – | 0.125 | 0.176 µM | – | –
6 | C=CCN=C1NC(=O)C(CC(=O)Nc2ccc([N+](=O)[O-])cc2[N+](=O)[O-])S1 (stereo not given) | – | > 100 | > 100 | > 100 | > 100 | – | – | > 100 µM | – | – | – | – | – | – | – | – | – | –
7 | CC(=O)CC(=O)Nc1ccc(OS(N)(=O)=O)cc1 | – | > 100 | > 100 | > 100 | > 100 | – | – | > 100 µM | – | – | – | – | – | – | – | – | – | –
8 | O=C1C=C(c2ccccc2)NC1(c1ccccc1)c1cc(-c2ccccc2)[nH]c1-c1ccccc1 (stereo not given) | – | > 100 | > 100 | > 100 | > 100 | – | – | > 100 µM | – | – | – | – | – | – | – | – | – | –
9 | CC1=C(C(=O)Nc2cc(F)c(F)cc2F)C(c2ccc(N(C)C)cc2)C(C(=O)Nc2cc(F)c(F)cc2F)=C(C)N1 | – | > 100 | 62.8 | > 100 | > 100 | > 100 | – | 86.2 µM | 59.2 | – | – | – | – | – | – | – | 16.3 | 3.64
10 | COc1cc(Br)c(/C=N/N=C(\N)NO)cc1OC | – | > 100 | 33.6 | > 100 | 47.2 | – | – | > 100 µM | – | – | – | – | – | – | – | – | – | –
11 | Cc1ccccc1-c1cc(=O)c2cc(C)c(C)c(C(=O)O)c2o1 | – | > 100 | > 100 | > 100 | > 100 | – | – | > 100 µM | – | – | – | – | – | – | – | – | – | –
12 | COc1ccc(-c2cc(-c3ccco3)c(C#N)c(=O)n2C2OC(COC(C)=O)C(OC(C)=O)C(OC(C)=O)C2OC(C)=O)cc1 (stereo not given) | – | > 100 | > 100 | > 100 | > 100 | – | – | > 100 µM and 46.5 µM | – | – | > 100 µM and 21.6 µM | – | – | – | – | > 100 µM and 14.3 µM | – | –
13 | CC[P+](C)(C)CC | – | > 100 | > 100 | > 100 | > 100 | – | – | > 100 µM | – | – | – | – | – | – | – | – | – | –
14 | O=C1C2C3C=CC(C2C(=O)N1CN1CCOCC1)C1C2C(=O)N(CN4CCOCC4)C(=O)C2C31 (stereo not given) | > 100 | > 100 | 34.1 | 33.3 | 63.1 | > 100 | > 100 | 74.9 µM | > 100 | – | – | – | – | – | – | – | – | –
15 | Nc1ncnc2c1ncn2C1(CO)OC(CO)C(O)C1O (stereo not given) | – | > 100 | > 100 | > 100 | > 100 | – | – | > 100 µM | – | – | – | – | – | – | – | – | – | –
16 | CC(C)CC1CC2C(=O)N(c3ccccc3)C(=O)C2c2[nH]c3ccccc3c21 (stereo not given) | – | > 100 | 52.7 | > 100 | > 100 | – | – | 51.8 µM | – | – | – | – | – | – | – | – | – | –
